{
  "source": "patent US12269859B2",
  "about": "“Synthetic immune receptors and methods of use thereof” (Angeles Therapeutics, Inc., priority 2016, dated 2025)",
  "key": {"RAJI cells [1]": {"test_system": "RAJI cells", "test": "RAJI xenograft model of lymphoma in NSG mice (survival)", "format": "in vivo", "procedure": "In vivo efficacy of SIR targeting CD19. […] SIR constructs and Gluc-PAC-G07 control construct encoding non-secretory form of Guassia Luciferase. Approximately half the cells were selected with puromycin while the other half was expanded without puromycin selection. NSG mice (Jackson Lab) were sub-lethally irradiated at a dose of 175 cGy. Approximately 24 hours post irradiation (day 2), mice were injected with 2.5×10^4 RAJI cells via tail-vein. […] Control mice (n=5) received no T cells or uninfected T cells. Mice were given human IL2 (400 IU intraperitoneally) on alternate days till the death of all mice in control group.\nApproximately half the cells were selected with puromycin while the other half was expanded without puromycin selection. NSG mice (Jackson Lab) were sub-lethally irradiated at a dose of 175 cGy. Approximately 24 hours post irradiation (day 2), mice were injected with 2.5×10^4 RAJI cells via tail-vein. […] Control mice (n=5) received no T cells or uninfected T cells. Mice were given human IL2 (400 IU intraperitoneally) on alternate days till the death of all mice in control group.\nSIR construct. NSG mice (Jackson Lab) were sub-lethally irradiated at a dose of 175 cGy. Approximately 24 hours post irradiation (day 2), mice were injected with 2.5×10^4 RAJI cells via tail-vein. […] SIR encoding lentivirus. Control mice (n=5) were injected with 5 million uninfected T cells or given no T cells.\nSIR constructs. […] SIR were included as controls. NSG mice (n=5) were sub-lethally irradiated at a dose of 175 cGy. 24 hours post irradiation (day 2), mice were injected with 2.5×10^4 RAJI cells via tail-vein. […] Mice were given human IL2 (400 IU i.p.) on alternate days till the death of all mice in control group.\nHuman peripheral blood T cells isolated using CD3 magnetic beads were infected with lentiviruses expressing the indicated SIR constructs targeting Lym1 and Lym2. On day 1, the NSG mice were sub-lethally irradiated at a dose of 175 cGy. 24 hours post irradiation (day 2), mice were injected with 25×10^3 Raji cells intravenously. On day 3, the mice were treated intravenously with 10 million indicated CAR-T cells. Beginning on day 4, mice were injected with human IL-2 i.p. at a dose of 400 IU/mice every alternate day after the injection CAR-T cells till the death of all mice in control group."}, "Protein L magnetic beads": {"test_system": "Protein L magnetic beads", "test": "Jurkat NFAT-GFP assay, coculture with Protein L magnetic beads", "format": "cell-based, human", "details": "coculture with Protein L beads for 18 hours", "text": "Use of Protein L microbeads and Protein L expressing cells for stimulation of SIR and CAR expressing cells. A number of Human cell-based artificial antigen-presenting cells for cancer immunotherapy have been described. One approach for ex vivo expansion of CAR^+ and SIR^+ T cells involves the use of irradiated artificial antigen presenting cells (aAPC) expressing the targeted tumor associated antigen (TAA). However, this approach requires that the aAPC be engineered to express each individual TAA. To overcome this problem, a universal antigen presenting cell was developed. Protein L is an immunoglobulin (Ig) light chain-binding protein expressed by some strains of the anaerobic bacterial species Peptostreptococcus magnus. […] As an alternative to expressing individual TAAs on aAPC, experiments were performed to determine if Protein L could activate CAR^+ T and SIR^+ T cells independent of specificity. In the initial experiments, coculture of Jurkat-NFAT-GFP cells expressing different CAR and SIR constructs were tested to determine whether Protein L magnetic beads would lead to induction of GFP expression. Pierce Protein L magnetic beads (cat. #88849; concentration 10 mg/ml) were purchased from ThermoFisher and diluted 1:10 in PBS. Approximately 10 μl of diluted beads were added per well in a U-bottom 96-well plate. […] CAR were added to the wells and cocultured with the beads for 18 hours. […]"}, "293-Protein L-II cells": {"test_system": "293-Protein L-II cells", "test": "Jurkat NFAT-GFP assay, coculture with 293-Protein L-II cells", "format": "cell-based, human", "details": "co-culture with 293-Protein L-II cells approximately 18 hours", "text": "Generation of human aAPC expressing Protein L on cell surface. Lentiviral chimeric antigen receptor (CAR) constructs were generated expressing different regions of Protein L in fusion with hinge and transmembrane regions of human CD8, 41BB costimulatory domain and CD3z chain. The nucleotide sequence of Protein L was codon optimized for optimal expression in human cells. It needs to be noted that the 41BB costimulatory domain and CD3z chain are not essential for the function of Protein L for the purpose of this invention. The vectors also carried N-terminal signal peptides derived from either human CD8 or IgH to allow cell surface transport of Protein L. The complete nucleic acid and amino acid sequence of the vectors are provided in SEQ ID NO: 888 and SEQ ID NO: 889.\nNext, 293 cells were infected with a lentivirus vector encoding the Protein L-II construct (072716-K01) and polyclonal population of cells stably expressing Protein L were generated following selection with 750 ng/ml puromycin. […] SIR constructs. […] The use of Protein-L expressing aAPC is, however, not limited to above type of cells. These cells can serve as universal aAPC for any immune effector cell which carries an antigen binding domain derived from a suitable κ chain containing antibody that can bind to Protein L."}, "RAJI cells [2]": {"test_system": "RAJI cells", "test": "Jurkat NFAT-GFP assay, coculture with RAJI cells", "format": "cell-based, human", "details": "SIR/CAR-expressing Jurkat-NFAT-GFP cells cocultured with RAJI cells", "procedure": "(B) Induction of NFAT promoter driven GFP expression. The control vector- and SIR-expressing Jurkat-NFAT-GFP cocultured for 4-24 hours with the target antigen-expressing cell line (described above) and their ability to bind to the target antigen is assayed by measuring induction of GFP expression using Flow Cytometry. Cellular supernatant is collected and assayed for the induction of cytokines (e.g., IL2).\nJurkat NFAT-GFP Assay For Synthetic Immune Receptors. The Jurkat-NFAT-GFP cells are engineered in such a way that the IL-2 promoter, which carries NFAT binding sites, is cloned upstream of the GFP gene. These cells have been used to study signaling via TCR and CAR. […]\nInduction of GFP expression by coculturing of Jurkat-NFAT-GFP cells expressing different SIR constructs and the different target cells was studied essentially as described previously (Wu, Roybal, Puchner, Onuffer, & Lim, 2015). GFP expression was monitored by FACS analysis. […] The names of different SIRs, their SEQ ID NOs, component antigen binding domains and TCR chains can be determined by reference to Tables 7A-7H. […] The signs +/−, +, 2+ etc. after the name of the cell lines indicate the relative degree of positivity on the Jurkat-NFAT-GFP assay as measured by the % GFP positive cells after culture of the SIR expressing Jurkat-NFAT-GFP cells with that cell line."}},
  "data": [
    {"compound": "Cc1sc2c(c1C)C(c1ccc(Cl)cc1)=N[C@@H](CC(=O)OC(C)(C)C)c1nnc(C)n1-2", "note": "[JQ1(+), reference compound]", "values": [
      {"measurement": "persistence of SIR-T cells and survival vs vehicle (in words)", "setting": "RAJI cells [1]; 50 mg/kg twice daily intra-peritoneal, mice receiving SEQ ID NO: 1200 SIR-T cells", "result": "longer persistence of SIR-T cells and survive longer"}
    ]},
    {"compound": "COc1ccc(-c2cc3c(C)nc(N)nc3n([C@H]3CC[C@H](OCCO)CC3)c2=O)cn1", "note": "[PF-04691502, reference compound]", "values": [
      {"measurement": "median survival of mice given SIR-T cells expanded in presence vs absence of the inhibitor (in words)", "setting": "RAJI cells [1]; SIR-T (SEQ ID NO:900) expanded with 0.10 μM to 0.5 μM", "result": "higher"}
    ]},
    {"compound": "CD8SP-FMC63(vL-vH)-Myc-BBz-T2A-PAC [SEQ ID NO:4501, reference compound]", "values": [
      {"measurement": "induction of GFP expression (in words)", "setting": "Protein L magnetic beads", "result": "modest induction of GFP expression"},
      {"measurement": "induction of GFP expression (in words)", "setting": "293-Protein L-II cells", "result": "strong induction of GFP expression"}
    ]},
    {"compound": "pSBbi-puro-FMC63vL-V5-[TCRb-KACIAH]-F-P2A-FMC63vH-MYC-[TCRa-CSDVP]-F-F2A [SEQ ID NO:875]", "values": [
      {"measurement": "induction of GFP expression / NFAT signaling (in words)", "setting": "RAJI cells [2]", "result": "showed GFP induction"}
    ]}
  ]
}
